Results published in patent US20040162298A1, “Method of treating HIV infection by preventing interaction of CD4 and gp120” (priority 2002, published 2004).

Tests used:
HIV = experiment: Anti-HIV activity (assay not specified); type: cell-based; details: Human immunodeficiency virus 1, quoted in text
gp120JRFL [1] = experiment: Circular dichroism analysis of gp120 conformational change; design: species or system HIV-1
Experimental: (§1) CD spectra was collected on a Jasco J-720 spectropolarimeter at ambient temperature. Protein concentration in the sample were kept a ˜1 μM, with the exception of sCD4 (1.8 μM) in 20 mM Tris/150 mM NaCl, pH 8.0. Concentration of compound used in the experiments were as indicated.
(§2) Circular Dichroism (CD) analysis. (Method for FIG. 3 results). The CD spectra of purified gp120JRFL (1.2 μM in 5 mM Tris, pH 8.0/150 mM NaCl) were obtained, in the presence and absence of an inhibitor, on a Jasco J-720 spectropolarimeter at ambient (21-23° C.) temperature. Samples containing varying protein-to-compound mole ratios were placed in a quartz cuvette with a 1-mm pathlength. The molar ellipticity (θ) was monitored between 200 nm and 250 nm as the average of 12-20 scans. Soluble CD4 was used as a negative protein controls. Compound, BMS-066, with no anti-HIV activity (EC50>5 μM) was included as a compound control.

gp120JRFL [2] = experiment: Biacore biosensor binding to immobilized gp120; design: species or system HIV-1; details: for Biacore signal on gp120-coated surface: compound at 1.5 μM, FIG. 2
Experimental: GP120JRFL was immobilized on the surface of a CM-chip to a surface density of 12000. Inhibitors prepared in the running buffer was flown over the surface at 30 μl/min. The sensorgram was recorded and normalized against the buffer alone sensorgram, using a Biacore 3000 instrument.
Biacore biosensor evaluation of gp120-inhibitor binding. (See FIG. 2 for results). The selective binding of entry inhibitors with gp120 was evaluated on a Biacore 3000 biosensor. Purified gp120JRFL was immobilized onto the flow cell surface of a CM-5 chip via EDC/NHS activated covalent modification, according to the protocol described by Biacore Inc. (Uppsala, Swiden). The surface density of immobilized gp120 reached 12000-15000 RU. Soluble CD4 and BSA coated surfaces were also immobilized on separate flow cell surfaces as controls.

sCD4 = target: T1, sCD4 (Homo sapiens, UniProt P01730); experiment: Circular dichroism analysis, sCD4 negative protein control; details: sCD4 1.8 μM, compound 3.5 μM, FIG. 3B
T1 construct: purchased ImmunoDiagnostics, Inc. (Woburn, Mass.)
Experimental: as §1, §2

gp120JRFL/CD4 = gp120JRFL/CD4 (Human immunodeficiency virus 1, UniProt Q75760); experiment: gp120/CD4 binding assay (ELISA); design: species or system HIV-1
Experimental: The effect of BMS-806 on the gp120/CD4 binding. The gp120JRFL in supernatant was captured onto anti-gp120 antibody (D7324) coated plate. The compound and soluble CD4 were added to the plate simultaneously and CD4 bound to gp120 was detected by ELISA using anti-CD4 antibody OKT4 as a primary antibody and the secondary antibody goat-anti-mouse-peroxidase conjugate. Value are the means±S.E.M which represent multiple separate experiments.
IC50 values show concentration of compound needed to inhibit 50% of binding of gp120 and CD4.
The gp120 capturing ELISA methods was derived from Moore et al (42). Briefly, the 96 well assay plates (Immulon 4, Dynatech Technologies Inc. Chantilly, Va.) were coated overnight at 4° C. with 100 μl per well of 10 ug/ml D7324 solution in 100 mM bicarbonate buffer (pH9.6). The antibody-coated plate was washed twice with TBS (20 mM Tris-HCl, 500 mM NaCl, pH7.5). All wells were blocked with 100 μl of 3% BSA in TBS for ½ hour at room temperature. Excess BSA was removed with three TBS washes. Gp120 (purified or in supernatant) were diluted in buffer C (50 mM Tris-HCl, pH 7.5, 100 mM NaCl, 1% BSA) and added to D7324 coated plate(s) at 100μl/well. After incubating at 37° C. for 2 hours, plate(s) was washes three times with Buffer (20 mM Tris-HCl, 500 mM NaCl, 0.05% Tween-20, pH7.5) and the bound gp120 was detected by Anti-gp120-peroxidase conjugate (Cross-reactive, ImmunoDiagnostics, Inc) at a final dilution of 1:1000 in BufferC. Bound antibody-peroxidase conjugates were detected with TMB solution (Pierce) and the optical density was measured at 450 nm. Known concentration of the purified gp120IIIB (ABI) were used to generate a standard curve for gp120 quantitation.
The assay is similar to the gp120 capturing ELISA method described above with minor modifications.(43). After coating gp120 onto the plates, sCD4 was added to the plate at a final concentration of 200 ng/ml for one hour at room temperature. […] After washing with BufferB, 100 μl of TMB solution was added and the optical density was read at 450 nm.

[3] = tested on: HIV-1 single-round infectious reporter virus; experiment: Anti-HIV single cycle infection assay (luciferase reporter virus, HeLa/CD4/CCR5 cells); type: cell-based; details: Human immunodeficiency virus 1, HeLa-CD4/CCR5, 72 h, read-out: Anti-HIV single cycle infection EC50
Experimental: EC50 values show concentration of compound needed to inhibit 50% HIV viral replication.
Single-round infectious reporter virus was produced by co-transfecting human embryonic Kidney 293 cells with an HIV-1 envelope DNA expression vector and a proviral cDNA containing an envelope deletion mutation and the luciferase reporter gene inserted in place of HIV-1 nef sequences (Chen, 1994). Transfections were performed using LipofectAMINE PLUS reagent as described by the manufacturer (Life Technologies, Gaithersburg, Md.). The resulting reporter viruses are then used to infect HeLa/CD4/CCR5 cells in the following manner. Serial diluted compound was added to HeLa/CD4/CCR5 cells plated in 96 well plates at a cell density of 5×10^4 cells per well in 100 μl Dulbecco's Modified Eagle Medium containing 10% fetal Bovine serum. One hundred microliter of single-round infectious reporter virus in Dulbecco's Modified Eagle Medium was then added to the plated cells and compound at a multiplicity of infection (MOI) of 0.01. Samples were harvested 72 hours after infection and viral infection was monitored by measuring luciferase expression from viral DNA in the infected cells using a luciferase reporter gene assay kit as described by the manufacturer.

HIV-1 JRFL = experiment: Activity against laboratory adapted HIV-1 strain JRFL; type: cell-based; details: Human immunodeficiency virus 1, CCR5
Experimental: (§3) Viruses and cells: (Method for Table 2 results). T-tropic (X4) strains of laboratory adapted HIV-1 were amplified in MT-2 cells and titered using a virus yield assay (17). The laboratory adapted M-tropic (R5) viruses were grown in macrophages or PM1 cells and p24 ELISA assay was used to detect the virus. The TCID50/ml (tissue culture infectious dose) was calculated by the method of Spearman-Karber. Titration of viral stocks and assaying for compound sensitivity were carried out in the cell lines the viruses were originally amplified in. The 50% inhibitory concentration (EC50) was calculated by using the exponential form of the median effect equation where (Fa)=1/[1+(ED50/drug conc.)^m] (17).

HIV-1 LAV = experiment: Activity against laboratory adapted HIV-1 strain LAV; type: cell-based; details: Human immunodeficiency virus 1
Experimental: as §3

HIV-1 NL4-3 = experiment: Activity against laboratory adapted HIV-1 strain NL4-3; type: cell-based; details: Human immunodeficiency virus 1, NL43
Experimental: as §3

HIV-1 Bru = experiment: Activity against laboratory adapted HIV-1 strain Bru; type: cell-based; details: Human immunodeficiency virus 1
Experimental: as §3

HIV-1 SF-162 = experiment: Activity against laboratory adapted HIV-1 strain SF-162; type: cell-based; details: Human immunodeficiency virus 1, CCR5
Experimental: as §3

HIV-1 Bal = experiment: Activity against laboratory adapted HIV-1 strain Bal; type: cell-based; details: Human immunodeficiency virus 1, BAL, CCR5, Virus Bal
Experimental: as §3

HIV-1 A0-18 = experiment: Activity against laboratory adapted HIV-1 strain A0-18; type: cell-based; details: Human immunodeficiency virus 1
Experimental: as §3

HIV-1 SF-2 = experiment: Activity against laboratory adapted HIV-1 strain SF-2; type: cell-based; details: Human immunodeficiency virus 1
Experimental: as §3

HIV-1 IIIB = experiment: Activity against laboratory adapted HIV-1 strain IIIB; type: cell-based; details: Human immunodeficiency virus 1, IIIB
Experimental: as §3

HIV-1 MN = experiment: Activity against laboratory adapted HIV-1 strain MN; type: cell-based
Experimental: as §3

HIV-1 RF = experiment: Activity against laboratory adapted HIV-1 strain RF; type: cell-based
Experimental: as §3

[4] = tested on: laboratory strains of B subtype HIV-1; experiment: Activity against panel of laboratory strains of B subtype HIV-1; type: cell-based; details: Human immunodeficiency virus 1, read-out: EC50 values against 11 of the 13 laboratory strains
Experimental: as §3

gp120JRFL [5] = experiment: FlashPlate binding of [3H]BMS-853 to gp120, incl. sCD4 competition; design: species or system HIV-1; details: radioactive inhibitor
Experimental: Interaction of gp120JRFL (wild type) with ^3H-BMS-853. FlashPlate was coated with increase amount of gp120 and constant amount of ^3H-BMS-853 (16.5 nM) in BufferC was added to each well and the binding assay was allowed to proceed as described in material and methods. Points are averages of duplicate or triplicate determinations.
Competition binding of ^3H-BMS-853 binding to gp120 by soluble CD4.(sCD4) ^3H-BMS-853 bound to gp120 in the presence of varying amount of sCD4 was determined as described under material and methods. Points shown were obtained in a signal experiment, performed in duplicate. Data were analyzed with Prism computer program. (GraphPad Software, Inc).
FlashPlate assay. The binding of [^3H]BMS-853 to gp120 was performed on FlashPlate (NEN,SMP200). Coating of gp120 onto FlashPlate was essentially the same as described for gp120 capturing ELISA. After brief washes of gp120 coated FlashPlate with TBS, [^3H]BMS-853 was added to a final concentration of 16.5 nM in BufferC and the plate was kept at room temperature overnight. The plate was washed once with TBS and then counted in TopCount® Microplate Scintillation counter. Varying concentrations of gp120 were used to show the gp120 dose-dependent binding of [^3H]BMS-853 (FIG. 1).

[6] = tested on: V1V2V3 loop-deleted gp120JRFL; experiment: Binding of [3H]BMS-853 to V1V2V3 loop-deleted gp120; design: species or system HIV-1; details: radioactive inhibitor

Cc1ccc(C)c2c(C(=O)C(=O)N3CCN(C(=O)c4ccccc4)CC3)c[nH]c12 [BMS-033]
EC50 (HIV): > 5000 nM | attenuation of the gp120JRFL CD signal (gp120JRFL [1]; compound at 2 μM, FIG. 3C): did not cause any attenuation

COc1cnc(-c2cnc(N(C)C)cn2)c2[nH]cc(C(=O)C(=O)N3CCN(C(=O)c4ccccc4)CC3)c12 [BMS-038]
Biacore response at various concentrations on gp120-coated surface (gp120JRFL [2]; various concentrations): dose-dependent increase of reflective index

COc1ncc(OC)c2c(C(=O)C(=O)N3CCN(C(=O)c4ccccc4)CC3)c[nH]c12 [BMS-043]
EC50 (HIV): 0.8 nM | Biacore signal on gp120-coated surface (gp120JRFL [2]): intermediate signals | attenuation of the protein CD signal (gp120JRFL [1]; gp120JRFL 1.2 μM, inhibitor 2.1 μM): 40% | attenuation of the sCD4 CD signal (sCD4): no attenuation

O=C(C(=O)N1CCN(C(=O)c2ccccc2)CC1)c1c[nH]c2ccccc12 [BMS-216]
IC50 (gp120JRFL/CD4): 1800 ± 300 nM | EC50 [3]: 200 nM

COc1ccnc2[nH]cc(C(=O)C(=O)N3CCN(C(=O)c4ccccc4)C[C@H]3C)c12 [BMS-806, (R)—N-(benzoyl)-3-methyl-N′-[(4-methoxy-7-azaindol-3-yl)-oxoacetyl]-piperazine]
IC50 (gp120JRFL/CD4): 280 nM | EC50 [3]: 0.6 nM | EC50 (HIV-1 JRFL): 1.47 nM | EC50 (HIV-1 LAV): 1.98 nM | EC50 (HIV-1 NL4-3): 2.94 nM | EC50 (HIV-1 Bru): 3.26 nM | EC50 (HIV-1 SF-162): 3.46 nM | EC50 (HIV-1 Bal; coreceptor CCR5, host Macrophage): 8.4 nM | EC50 (HIV-1 Bal; coreceptor CCR5, host PM1): 15.5 nM | EC50 (HIV-1 A0-18): 23.6 nM | EC50 (HIV-1 SF-2): 26.5 nM | EC50 (HIV-1 IIIB): 39.4 nM | EC50 (HIV-1 MN; Human immunodeficiency virus 1, Virus MN, coreceptor CXCR4, host MT-2): 844 nM | blocking of infection (HIV-1 MN; virus MN): not efficiently blocked | EC50 (HIV-1 RF; Human immunodeficiency virus 1): 6030 nM | blocking of infection (HIV-1 RF; virus RF): not efficiently blocked | EC50 (HIV): 1 nM | Biacore signal on gp120-coated surface (gp120JRFL [2]): intermediate signals | EC50 [4]: 0.85 to 75.8 nM

COc1ccc(OC)c2c(C(=O)C(=O)N3CCN(C(=O)c4ccccc4)CC3)c[nH]c12 [BMS-853]
IC50 (gp120JRFL/CD4): 24 ± 9 nM | EC50 [3]: 0.1 nM

COc1ccc(OC)c2c(C(=O)C(=O)N3CCN(C(=O)c4ccccc4)CC3)c[nH]c12 [[^3H]BMS-853]
binding to full-length recombinant gp120JRFL (gp120JRFL [5]): bind effectively | binding to V1V2V3 loop-deleted gp120JRFL [6]: bound significantly less effective
